Where two headings read alike, the source gives them in different places.
Columns and labels:
SNU398 cells = assay: Extracellular lactate production inhibition after 4 h, SNU398; details: Homo sapiens, SNU-398, read-out: IC50 (SNU-398)
Description: (§1) Extracellular Lactate Production Inhibition after 4 h
(§2) Cells were plated in growth media supplemented with 10% FBS, followed by overnight recovery at 37° C., 5% CO2. […] Plates were then moved for 4 h incubation at 37° C., 5% CO2 with subsequent 20 μl media transfer to empty 384-well transparent plates. […] Plates were short-spun and measured kinetically in absorbance mode (530 nm, 12 min measurement time with 2-minute intervals between subsequent readouts at 30° C.). Differences in the signal between T8 min and T0min were normalized to vehicle (cells w/ 0.25% DMSO) and quasi-positive (LCIS buffer w/ 0.25% DMSO) controls and plotted against logarithmically-transformed test compound concentrations with fitting the 4-parameter model in GraphPad Prism software.

MIA PaCa-2 cells = assay: Extracellular lactate production inhibition after 4 h, MIA PaCa-2; details: Homo sapiens, MIA PaCa-2, read-out: IC50 (MiaPACa)
Description: as §1, §2

MDA-MB-231 cells = assay: Extracellular lactate production inhibition after 4 h, MDA-MB-231; details: Homo sapiens
[1] = MDA-MB-231, read-out: IC50 (MDA-MB231)

| SMILES | IC50 (SNU398 cells) [µM] | IC50 (MIA PaCa-2 cells) [µM] | IC50 (MDA-MB-231 cells; MDA-MB-231) [µM] | IC50 (MDA-MB-231 cells; [1]) [µM] |
| --- | --- | --- | --- | --- |
| COc1ccc(S(=O)(=O)Nc2ccccc2C#Cc2ccc(C(=O)N(C)C)nc2)c2ncccc12 [Compound 217] | < 1 | < 1 | 1 to 100 | < 1 |
| Cc1ccc2cccnc2c1S(=O)(=O)Nc1ccccc1C#Cc1cnc(C(=O)O)c2ccccc12 [Compound 208, 4-{2-[2-(7-methylquinoline-8-sulfonamido)phenyl]ethynyl}isoquinoline-1-carboxylic acid] | < 1 | < 1 | 0.1 to 1 | < 1 |
